Test results: ChEMBL document CHEMBL3217454, “Structureactivity relationship studies using peptide arrays: the example of HIV-1 Revintegrase interaction” (Medchemcomm, 2013)
Peptide text beside a SMILES is read from it.

Legend:
[1] = tested on: Human immunodeficiency virus 1; assay: Binding affinity to HLT-tagged HIV-1 Rev measured after overnight incubation by chemiluminescence analysis relative to IN 174-188; set-up: concentration or dose not given beside the values
[2] = target: Human immunodeficiency virus type 1 integrase (Human immunodeficiency virus 1) (UniProt Q7ZJM1); assay: Binding affinity to HIV-1 integrase measured after overnight incubation by chemiluminescence analysis relative to IN 174-188; set-up: concentration or dose not given beside the values
Chain of Human immunodeficiency virus type 1 integrase (Human immunodeficiency virus 1) (Q7ZJM1 as listed by the source): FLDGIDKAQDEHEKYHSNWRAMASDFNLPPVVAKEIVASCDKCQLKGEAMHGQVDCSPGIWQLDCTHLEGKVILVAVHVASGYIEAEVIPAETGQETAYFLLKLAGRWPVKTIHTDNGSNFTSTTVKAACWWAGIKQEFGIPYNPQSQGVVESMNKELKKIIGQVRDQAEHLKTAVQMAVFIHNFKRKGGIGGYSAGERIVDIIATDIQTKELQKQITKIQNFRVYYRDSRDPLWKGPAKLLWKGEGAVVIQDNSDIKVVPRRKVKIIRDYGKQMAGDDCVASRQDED

## CC[C@H](C)[C@H](NC(=O)[C@H](Cc1ccccc1)NC(=O)[C@@H](NC(=O)[C@H](C)NC(=O)[C@H](CCSC)NC(=O)[C@@H](N)CCC(N)=O)C(C)C)C(=O)N[C@@H](Cc1cnc[nH]1)C(=O)N[C@@H](CC(N)=O)C(=O)N[C@@H](Cc1ccccc1)C(=O)N[C@@H](CCCCN)C(=O)N[C@@H](CCCNC(=N)N)C(=O)N[C@@H](CCCCN)C(=O)O (H-QMAVFIHNFKRK-OH)
[1]
  Activity: 135%
[2]
  Activity: 122%

## CC[C@H](C)[C@H](NC(=O)[C@H](Cc1ccccc1)NC(=O)[C@@H](NC(=O)[C@H](C)NC(=O)[C@H](CCSC)NC(=O)[C@H](CCC(N)=O)NC(=O)[C@H](C)NC(=O)[C@H](C)NC(=O)[C@@H](N)[C@@H](C)O)C(C)C)C(=O)N[C@@H](Cc1cnc[nH]1)C(=O)N[C@@H](CC(N)=O)C(=O)N[C@@H](Cc1ccccc1)C(=O)N[C@@H](CCCCN)C(=O)N[C@@H](CCCNC(=N)N)C(=O)N[C@@H](CCCCN)C(=O)O (H-TAAQMAVFIHNFKRK-OH)
[1]
  Activity: 106%
[2]
  Activity: 115%

## CC[C@H](C)[C@H](NC(=O)[C@H](Cc1ccccc1)NC(=O)[C@@H](NC(=O)[C@H](C)NC(=O)[C@H](CCSC)NC(=O)[C@H](C)NC(=O)[C@@H](NC(=O)[C@H](C)NC(=O)[C@@H](N)[C@@H](C)O)C(C)C)C(C)C)C(=O)N[C@@H](Cc1cnc[nH]1)C(=O)N[C@@H](CC(N)=O)C(=O)N[C@@H](Cc1ccccc1)C(=O)N[C@@H](CCCCN)C(=O)N[C@@H](CCCNC(=N)N)C(=O)N[C@@H](CCCCN)C(=O)O (H-TAVAMAVFIHNFKRK-OH)
[1]
  Activity: 79%
[2]
  Activity: 83%

## CC[C@H](C)[C@H](NC(=O)[C@H](Cc1ccccc1)NC(=O)[C@@H](NC(=O)[C@H](C)NC(=O)[C@H](C)NC(=O)[C@H](CCC(N)=O)NC(=O)[C@@H](NC(=O)[C@H](C)NC(=O)[C@@H](N)[C@@H](C)O)C(C)C)C(C)C)C(=O)N[C@@H](Cc1cnc[nH]1)C(=O)N[C@@H](CC(N)=O)C(=O)N[C@@H](Cc1ccccc1)C(=O)N[C@@H](CCCCN)C(=O)N[C@@H](CCCNC(=N)N)C(=O)N[C@@H](CCCCN)C(=O)O (H-TAVQAAVFIHNFKRK-OH)
[1]
  Activity: 172%
[2]
  Activity: 113%

## CC[C@H](C)[C@H](NC(=O)[C@H](Cc1ccccc1)NC(=O)[C@H](C)NC(=O)[C@H](C)NC(=O)[C@H](CCSC)NC(=O)[C@H](CCC(N)=O)NC(=O)[C@@H](NC(=O)[C@H](C)NC(=O)[C@@H](N)[C@@H](C)O)C(C)C)C(=O)N[C@@H](Cc1cnc[nH]1)C(=O)N[C@@H](CC(N)=O)C(=O)N[C@@H](Cc1ccccc1)C(=O)N[C@@H](CCCCN)C(=O)N[C@@H](CCCNC(=N)N)C(=O)N[C@@H](CCCCN)C(=O)O (H-TAVQMAAFIHNFKRK-OH)
[1]
  Activity: 222%
[2]
  Activity: 123%

## CC[C@H](C)[C@H](NC(=O)[C@H](C)NC(=O)[C@@H](NC(=O)[C@H](C)NC(=O)[C@H](CCSC)NC(=O)[C@H](CCC(N)=O)NC(=O)[C@@H](NC(=O)[C@H](C)NC(=O)[C@@H](N)[C@@H](C)O)C(C)C)C(C)C)C(=O)N[C@@H](Cc1cnc[nH]1)C(=O)N[C@@H](CC(N)=O)C(=O)N[C@@H](Cc1ccccc1)C(=O)N[C@@H](CCCCN)C(=O)N[C@@H](CCCNC(=N)N)C(=O)N[C@@H](CCCCN)C(=O)O (H-TAVQMAVAIHNFKRK-OH)
[1]
  Activity: 216%
[2]
  Activity: 104%

## CSCC[C@H](NC(=O)[C@H](CCC(N)=O)NC(=O)[C@@H](NC(=O)[C@H](C)NC(=O)[C@@H](N)[C@@H](C)O)C(C)C)C(=O)N[C@@H](C)C(=O)N[C@H](C(=O)N[C@@H](Cc1ccccc1)C(=O)O)C(C)C (H-TAVQMAVF-OH)
[1]
  Activity: 0%
[2]
  Activity: 0%

## CSCC[C@H](NC(=O)[C@H](CCC(N)=O)NC(=O)[C@@H](NC(=O)[C@H](C)NC(=O)[C@@H](N)[C@@H](C)O)C(C)C)C(=O)N[C@@H](C)C(=O)N[C@H](C(=O)N[C@@H](Cc1ccccc1)C(=O)N[C@@H](C)C(=O)N[C@@H](Cc1cnc[nH]1)C(=O)N[C@@H](CC(N)=O)C(=O)N[C@@H](Cc1ccccc1)C(=O)N[C@@H](CCCCN)C(=O)N[C@@H](CCCNC(=N)N)C(=O)N[C@@H](CCCCN)C(=O)O)C(C)C (H-TAVQMAVFAHNFKRK-OH)
[1]
  Activity: 254%
[2]
  Activity: 156%

## CC[C@H](C)[C@H](NC(=O)[C@H](Cc1ccccc1)NC(=O)[C@@H](NC(=O)[C@H](C)NC(=O)[C@H](CCSC)NC(=O)[C@H](CCC(N)=O)NC(=O)[C@@H](NC(=O)[C@H](C)NC(=O)[C@@H](N)[C@@H](C)O)C(C)C)C(C)C)C(=O)O (H-TAVQMAVFI-OH)
[1]
  Activity: 0%
[2]
  Activity: 0%

## CC[C@H](C)[C@H](NC(=O)[C@H](Cc1ccccc1)NC(=O)[C@@H](NC(=O)[C@H](C)NC(=O)[C@H](CCSC)NC(=O)[C@H](CCC(N)=O)NC(=O)[C@@H](NC(=O)[C@H](C)NC(=O)[C@@H](N)[C@@H](C)O)C(C)C)C(C)C)C(=O)N[C@@H](C)C(=O)N[C@@H](CC(N)=O)C(=O)N[C@@H](Cc1ccccc1)C(=O)N[C@@H](CCCCN)C(=O)N[C@@H](CCCNC(=N)N)C(=O)N[C@@H](CCCCN)C(=O)O (H-TAVQMAVFIANFKRK-OH)
[1]
  Activity: 121%
[2]
  Activity: 122%

## CC[C@H](C)[C@H](NC(=O)[C@H](Cc1ccccc1)NC(=O)[C@@H](NC(=O)[C@H](C)NC(=O)[C@H](CCSC)NC(=O)[C@H](CCC(N)=O)NC(=O)[C@@H](NC(=O)[C@H](C)NC(=O)[C@@H](N)[C@@H](C)O)C(C)C)C(C)C)C(=O)N[C@@H](Cc1cnc[nH]1)C(=O)O (H-TAVQMAVFIH-OH)
[1]
  Activity: 0%
[2]
  Activity: 0%

## CC[C@H](C)[C@H](NC(=O)[C@H](Cc1ccccc1)NC(=O)[C@@H](NC(=O)[C@H](C)NC(=O)[C@H](CCSC)NC(=O)[C@H](CCC(N)=O)NC(=O)[C@@H](NC(=O)[C@H](C)NC(=O)[C@@H](N)[C@@H](C)O)C(C)C)C(C)C)C(=O)N[C@@H](Cc1cnc[nH]1)C(=O)N[C@@H](C)C(=O)N[C@@H](Cc1ccccc1)C(=O)N[C@@H](CCCCN)C(=O)N[C@@H](CCCNC(=N)N)C(=O)N[C@@H](CCCCN)C(=O)O (H-TAVQMAVFIHAFKRK-OH)
[1]
  Activity: 105%
[2]
  Activity: 33%

## CC[C@H](C)[C@H](NC(=O)[C@H](Cc1ccccc1)NC(=O)[C@@H](NC(=O)[C@H](C)NC(=O)[C@H](CCSC)NC(=O)[C@H](CCC(N)=O)NC(=O)[C@@H](NC(=O)[C@H](C)NC(=O)[C@@H](N)[C@@H](C)O)C(C)C)C(C)C)C(=O)N[C@@H](Cc1cnc[nH]1)C(=O)N[C@@H](CC(N)=O)C(=O)O (H-TAVQMAVFIHN-OH)
[1]
  Activity: 0%
[2]
  Activity: 0%

## CC[C@H](C)[C@H](NC(=O)[C@H](Cc1ccccc1)NC(=O)[C@@H](NC(=O)[C@H](C)NC(=O)[C@H](CCSC)NC(=O)[C@H](CCC(N)=O)NC(=O)[C@@H](NC(=O)[C@H](C)NC(=O)[C@@H](N)[C@@H](C)O)C(C)C)C(C)C)C(=O)N[C@@H](Cc1cnc[nH]1)C(=O)N[C@@H](CC(N)=O)C(=O)N[C@@H](C)C(=O)N[C@@H](CCCCN)C(=O)N[C@@H](CCCNC(=N)N)C(=O)N[C@@H](CCCCN)C(=O)O (H-TAVQMAVFIHNAKRK-OH)
[1]
  Activity: 193%
[2]
  Activity: 134%

## CC[C@H](C)[C@H](NC(=O)[C@H](Cc1ccccc1)NC(=O)[C@@H](NC(=O)[C@H](C)NC(=O)[C@H](CCSC)NC(=O)[C@H](CCC(N)=O)NC(=O)[C@@H](NC(=O)[C@H](C)NC(=O)[C@@H](N)[C@@H](C)O)C(C)C)C(C)C)C(=O)N[C@@H](Cc1cnc[nH]1)C(=O)N[C@@H](CC(N)=O)C(=O)N[C@@H](Cc1ccccc1)C(=O)O (H-TAVQMAVFIHNF-OH)
[1]
  Activity: 0%
[2]
  Activity: 0%

## CC[C@H](C)[C@H](NC(=O)[C@H](Cc1ccccc1)NC(=O)[C@@H](NC(=O)[C@H](C)NC(=O)[C@H](CCSC)NC(=O)[C@H](CCC(N)=O)NC(=O)[C@@H](NC(=O)[C@H](C)NC(=O)[C@@H](N)[C@@H](C)O)C(C)C)C(C)C)C(=O)N[C@@H](Cc1cnc[nH]1)C(=O)N[C@@H](CC(N)=O)C(=O)N[C@@H](Cc1ccccc1)C(=O)N[C@@H](C)C(=O)N[C@@H](CCCNC(=N)N)C(=O)N[C@@H](CCCCN)C(=O)O (H-TAVQMAVFIHNFARK-OH)
[1]
  Activity: 176%
[2]
  Activity: 91%

## CC[C@H](C)[C@H](NC(=O)[C@H](Cc1ccccc1)NC(=O)[C@@H](NC(=O)[C@H](C)NC(=O)[C@H](CCSC)NC(=O)[C@H](CCC(N)=O)NC(=O)[C@@H](NC(=O)[C@H](C)NC(=O)[C@@H](N)[C@@H](C)O)C(C)C)C(C)C)C(=O)N[C@@H](Cc1cnc[nH]1)C(=O)N[C@@H](CC(N)=O)C(=O)N[C@@H](Cc1ccccc1)C(=O)N[C@@H](CCCCN)C(=O)O (H-TAVQMAVFIHNFK-OH)
[1]
  Activity: 127%
[2]
  Activity: 120%

## CC[C@H](C)[C@H](NC(=O)[C@H](Cc1ccccc1)NC(=O)[C@@H](NC(=O)[C@H](C)NC(=O)[C@H](CCSC)NC(=O)[C@H](CCC(N)=O)NC(=O)[C@@H](NC(=O)[C@H](C)NC(=O)[C@@H](N)[C@@H](C)O)C(C)C)C(C)C)C(=O)N[C@@H](Cc1cnc[nH]1)C(=O)N[C@@H](CC(N)=O)C(=O)N[C@@H](Cc1ccccc1)C(=O)N[C@@H](CCCCN)C(=O)N[C@@H](C)C(=O)N[C@@H](CCCCN)C(=O)O (H-TAVQMAVFIHNFKAK-OH)
[1]
  Activity: 234%
[2]
  Activity: 127%

## CC[C@H](C)[C@H](NC(=O)[C@H](Cc1ccccc1)NC(=O)[C@@H](NC(=O)[C@H](C)NC(=O)[C@H](CCSC)NC(=O)[C@H](CCC(N)=O)NC(=O)[C@@H](NC(=O)[C@H](C)NC(=O)[C@@H](N)[C@@H](C)O)C(C)C)C(C)C)C(=O)N[C@@H](Cc1cnc[nH]1)C(=O)N[C@@H](CC(N)=O)C(=O)N[C@@H](Cc1ccccc1)C(=O)N[C@@H](CCCCN)C(=O)N[C@@H](CCCNC(=N)N)C(=O)O (H-TAVQMAVFIHNFKR-OH)
[1]
  Activity: 114%
[2]
  Activity: 87%

## CC[C@H](C)[C@H](NC(=O)[C@H](Cc1ccccc1)NC(=O)[C@@H](NC(=O)[C@H](C)NC(=O)[C@H](CCSC)NC(=O)[C@H](CCC(N)=O)NC(=O)[C@@H](NC(=O)[C@H](C)NC(=O)[C@@H](N)[C@@H](C)O)C(C)C)C(C)C)C(=O)N[C@@H](Cc1cnc[nH]1)C(=O)N[C@@H](CC(N)=O)C(=O)N[C@@H](Cc1ccccc1)C(=O)N[C@@H](CCCCN)C(=O)N[C@@H](CCCNC(=N)N)C(=O)N[C@@H](C)C(=O)O (H-TAVQMAVFIHNFKRA-OH)
[1]
  Activity: 209%
[2]
  Activity: 109%
